Measured values reported in patent publication US11840686B2, “Modulation of prekallikrein (PKK) expression” (Ionis Pharmaceuticals, Inc., priority 2013, dated 2023).
Strand notation (5' to 3'): a small letter for the sugar, then the base; units joined by * are phosphorothioate-linked, units joined directly phosphodiester-linked; [ ] holds rarer units or linkages, { } end groups; capitals alone tell only the bases. e = 2'-O-(2-methoxyethyl) (MOE); k = constrained ethyl (cEt); [5mC] = 5-methylcytosine; d = 2'-deoxy (DNA)

Tested on: human PKK mRNA
Experiment: Antisense inhibition of human PKK mRNA in HepaRG cells, 1,000 nM, MOE/deoxy/cEt oligonucleotides (Example 3)
Format: cell-based
In short: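 Readout is percent PKK mRNA reduction against untreated controls, by real-time PCR (RTS3454) adjusted for total RNA via RIBOGREEN. Oligonucleotides, phosphorothioate gapmers of 16 nucleosides with cEt, MOE and deoxy sugars, were delivered at 1,000 nM by electroporation to 20,000 HepaRG cells/well for roughly 24 h.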

[1] = HepaRG cells, 1,000 nM antisense oligonucleotide, Table 29
[2] = Table 20, HepaRG cells, electroporation with 1,000 nM antisense oligonucleotide, approximately 24 hours, PKK mRNA by RT-PCR (RTS3454), relative to untreated control cells
[3] = Table 22 experiment, HepaRG cells, electroporation with 1,000 nM antisense oligonucleotide, approx. 24 hours, PKK mRNA by RT-PCR (RTS3454), relative to untreated control cells
[4] = Table 21 experiment, HepaRG cells, electroporation with 1,000 nM antisense oligonucleotide, approx. 24 hours, PKK mRNA by RT-PCR (RTS3454), relative to untreated control cells
[5] = Table 30, human PKK mRNA, HepaRG cells, 1,000 nM antisense oligonucleotide
[6] = HepaRG cells, electroporation with 1,000 nM antisense oligonucleotide, approximately 24 hours, primer probe set RTS3454, relative to untreated control cells, experiment of Table 23
[7] = Table 19, HepaRG cells, electroporation with 1,000 nM antisense oligonucleotide, approximately 24 hours, PKK mRNA by RT-PCR (RTS3454), relative to untreated control cells
[8] = Table 28, HepaRG cells, 1,000 nM antisense oligonucleotide, human PKK mRNA
[9] = HepaRG cells, electroporation with 1,000 nM antisense oligonucleotide, approx. 24 hours, PKK mRNA by RT-PCR (RTS3454), relative to untreated control cells, Table 25 experiment
[10] = Table 27, HepaRG cells, 1,000 nM antisense oligonucleotide, human PKK mRNA
[11] = PKK mRNA, HepaRG cells, 1,000 nM antisense oligonucleotide, Table 31

With “548573 (e[5mC]*e[5mC]*kA*dG*dT*d[5mC]*dA*d[5mC]*d[5mC]*dA*d[5mC]*d[5mC]*dA*kT*kT*eG; antisense) [compound 548573]” the “% inhibition” value [1] was 65%.

For “547908 (e[5mC]*eA*kA*dT*dT*dT*d[5mC]*dT*dG*dA*dA*dA*dG*kG*kG*e[5mC]; antisense) [compound 547908]”, the “% inhibition” value [2] was 94% and the “% inhibition” value [3] was 71%.

For “547751 (eT*eG*kA*dA*d[5mC]*dG*dG*dT*d[5mC]*dT*dT*d[5mC]*dA*kA*kG*e[5mC]; antisense) [compound 547751]”, the “% inhibition” value [4] was 0%.

With “548449 (eA*eT*k[5mC]*dA*d[5mC]*dT*dG*dT*d[5mC]*d[5mC]*dT*dA*dT*kG*kT*e[5mC]; antisense) [compound 548449]” the “% inhibition” value [5] was 62%.

In the case of “548604 (eG*eT*kG*dG*dT*dG*dG*dG*dA*dT*dT*dG*dG*kT*kG*e[5mC]; antisense) [compound 548604]”, the “% inhibition” value [1] is reported as 22%.

For “547938 (eT*eT*kG*dT*dG*dA*d[5mC]*dT*d[5mC]*dG*dA*dT*dT*kT*kT*e[5mC]; antisense) [compound 547938]”, the “% inhibition” value [6] was 56%.

In the case of “547847 (antisense e[5mC]*eT*k[5mC]*dG*dA*dT*dG*dG*d[5mC]*dA*dA*dG*d[5mC]*kA*k[5mC]*eT) [compound 547847]”, the “% inhibition” value [2] is reported as 46% and the “% inhibition” value [3] is reported as 72%.

For “548563 (antisense eA*eA*kA*d[5mC]*d[5mC]*dA*dT*dG*dA*dA*dT*dT*dA*kG*kG*eT) [compound 548563]”, the “% inhibition” value [1] was 20%.

“548076 (e[5mC]*eA*k[5mC]*d[5mC]*dT*dT*dT*d[5mC]*dT*d[5mC]*d[5mC]*dT*dT*k[5mC]*kG*eA; antisense) [compound 548076]” was tested, and the “% inhibition” value [7] was 26%.

With “548534 (antisense e[5mC]*eA*kG*dA*dT*d[5mC]*d[5mC]*d[5mC]*dA*dA*dT*dT*d[5mC]*kT*kT*e[5mC]) [compound 548534]” the “% inhibition” value [8] was 22%.

For “548143 (e[5mC]*eA*k[5mC]*dT*d[5mC]*dT*d[5mC]*d[5mC]*dA*dT*dG*d[5mC]*dT*kT*kT*eG; antisense) [compound 548143]”, the “% inhibition” value [7] was 39%.

In the case of “548182 (eA*eG*kT*d[5mC]*dA*dT*dG*dG*dA*dG*dA*dT*d[5mC]*kT*k[5mC]*eA; antisense) [compound 548182]”, the “% inhibition” value [9] is reported as 55%.

“548361 (antisense e[5mC]*eT*kT*dA*dT*d[5mC]*dA*dG*dT*d[5mC]*d[5mC]*d[5mC]*dA*kG*kT*e[5mC]) [compound 548361]” was tested, and the “% inhibition” value [10] was 52%.

In the case of “548593 (e[5mC]*eA*kT*d[5mC]*d[5mC]*d[5mC]*dT*dG*dA*d[5mC]*dA*dG*dG*kT*k[5mC]*e[5mC]; antisense) [compound 548593]”, the “% inhibition” value [1] is reported as 61%.

“548130 (eA*eT*kT*dT*dG*dA*d[5mC]*dT*dT*dG*dA*dA*d[5mC]*kT*k[5mC]*eA; antisense) [compound 548130]” was tested, and the “% inhibition” value [7] was 27%.

“548063 (eG*eT*kA*dT*dA*dA*dA*dT*dT*dG*dT*dG*d[5mC]*kT*kT*eG; antisense) [compound 548063]” was tested, and the “% inhibition” value (HepaRG cells, electroporation with 1,000 nM antisense oligonucleotide, approximately 24 hours, primer probe set RTS3454, relative to untreated control cells, experiment of Table 24) was 35%.

For “548156 (eT*e[5mC]*kA*dG*d[5mC]*d[5mC]*d[5mC]*d[5mC]*dT*dG*dG*dT*dT*kA*k[5mC]*eG; antisense) [compound 548156]”, the “% inhibition” value [9] was 0%.

For “548290 (eG*eA*kG*d[5mC]*dA*d[5mC]*dT*d[5mC]*dT*dT*dA*dT*dT*kA*kG*e[5mC]; antisense) [compound 548290]”, the “% inhibition” value (HepaRG cells, electroporation with 1,000 nM antisense oligonucleotide, approx. 24 hours, PKK mRNA by RT-PCR (RTS3454), relative to untreated control cells, Table 26 experiment) was 31%.

With “548140 (e[5mC]*eA*kG*dA*dT*dG*dA*dG*dG*dA*d[5mC]*d[5mC]*d[5mC]*k[5mC]*k[5mC]*e[5mC]; antisense) [compound 548140]” the “% inhibition” value [7] was 74%.

For “547850 (antisense eA*eA*kA*dT*dG*dT*d[5mC]*dT*d[5mC]*dG*dA*dT*dG*kG*k[5mC]*eA) [compound 547850]”, the “% inhibition” value [2] was 51% and the “% inhibition” value [3] was 80%.

For “548688 (DNA eT*eA*kG*dA*dG*dG*dG*dA*dT*d[5mC]*d[5mC]*d[5mC]*dA*kG*kG*eA) [compound 548688]”, the “% inhibition” value [11] was 0%.

In the case of “548098 (antisense eA*eG*kA*d[5mC]*dA*d[5mC]*d[5mC]*dA*dG*dG*dT*dT*dG*k[5mC]*kT*e[5mC]) [compound 548098]”, the “% inhibition” value [7] is reported as 0%.

With “548334 (antisense eG*e[5mC]*kT*d[5mC]*dA*d[5mC]*dT*dA*dT*dA*dG*dG*d[5mC]*k[5mC]*k[5mC]*e[5mC]) [compound 548334]” the “% inhibition” value [10] was 69%.

In the case of “547789 (antisense eG*eA*kA*dA*dT*dA*dA*dG*dT*dT*dG*d[5mC]*dT*kT*kG*e[5mC]) [compound 547789]”, the “% inhibition” value [4] is reported as 20%.

For “548399 (eA*eG*kT*d[5mC]*d[5mC]*dT*dA*d[5mC]*dA*dA*dT*dT*dA*k[5mC]*k[5mC]*eA; antisense) [compound 548399]”, the “% inhibition” value [5] was 11%.

In the case of “548687 (antisense eG*eA*kA*dT*d[5mC]*dT*d[5mC]*d[5mC]*d[5mC]*dT*dG*dA*dG*kT*k[5mC]*eA) [compound 548687]”, the “% inhibition” value [11] is reported as 20%.

With “548129 (eT*eT*kT*dG*dA*d[5mC]*dT*dT*dG*dA*dA*d[5mC]*dT*k[5mC]*kA*eG; antisense) [compound 548129]” the “% inhibition” value [7] was 35%.

For “547896 (eT*eA*kG*dG*d[5mC]*dA*dA*dT*dT*dG*dT*dT*d[5mC]*k[5mC]*kG*eG; antisense) [compound 547896]”, the “% inhibition” value [3] was 95%.

In the case of “548660 (antisense eA*eT*kG*d[5mC]*dT*dT*dA*d[5mC]*d[5mC]*dT*dT*dT*d[5mC]*kT*k[5mC]*e[5mC]) [compound 548660]”, the “% inhibition” value [11] is reported as 0%.

“547944 (eA*e[5mC]*kT*dT*dG*dG*dT*dG*dT*dG*d[5mC]*d[5mC]*dA*k[5mC]*kT*eT; antisense) [compound 547944]” was tested, and the “% inhibition” value [6] was 54%.

In the case of “547973 (antisense eA*eA*kG*dT*d[5mC]*dA*dA*d[5mC]*dT*d[5mC]*d[5mC]*d[5mC]*dG*kG*kG*eT) [compound 547973]”, the “% inhibition” value [6] is reported as 62%.

In the case of “548403 (eG*eA*kG*dT*dA*d[5mC]*dA*dT*dT*dG*dG*dG*d[5mC]*k[5mC]*k[5mC]*eA; antisense) [compound 548403]”, the “% inhibition” value [5] is reported as 25%.

For “548454 (eA*e[5mC]*kT*dG*dT*dA*d[5mC]*d[5mC]*dT*dA*dT*dA*dA*k[5mC]*kA*eG; antisense) [compound 548454]”, the “% inhibition” value [5] was 17%.

In the case of “548372 (eG*eA*kT*dA*d[5mC]*d[5mC]*dT*dT*dT*d[5mC]*d[5mC]*dA*d[5mC]*kT*k[5mC]*e[5mC]; antisense) [compound 548372]”, the “% inhibition” value [10] is reported as 61%.

For “548493 (antisense e[5mC]*e[5mC]*kA*d[5mC]*d[5mC]*dG*d[5mC]*dT*dG*d[5mC]*d[5mC]*d[5mC]*dG*k[5mC]*k[5mC]*eA) [compound 548493]”, the “% inhibition” value [8] was 37%.

With “548121 (antisense eT*e[5mC]*kT*dG*dG*dA*d[5mC]*dT*dG*d[5mC]*dT*dT*d[5mC]*kT*k[5mC]*eA) [compound 548121]” the “% inhibition” value [7] was 64%.
